Measurements: US12037345B2, “Heterobicyclic compounds for inhibiting the activity of SHP2” (TAIHO PHARMACEUTICAL CO., LTD., priority 2018, dated 2024)

Key:
[1] = system: pERK (phospho-p44/42 ERK) in HCC827 cells; experiment: Cellular pERK Inhibition Assay, Method A (In-Cell Western); assay type: cell-based; settings: Homo sapiens, Table 19, head prints unit as "-M", read-out: pERK (IC50) Method A
Procedure, shortened: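 In-Cell Western: phospho-p44/42 ERK antibody staining of formalin-fixed HCC827 cells after compound exposure (serum-free medium, 0.2% DMSO, 37 °C, indicated time). Readings minus cell-free blanks were normalised to DMSO-treated wells. Relative IC50 came from four-parameter logistic fits of quadruplicates, given as single or mean values.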

SHP2 = SHP2 (Homo sapiens (Human), UniProt Q06124); experiment: SHP2 Biochemical Assay (DiFMUP conversion, pIRS1-activated); settings: Table 19; head prints unit as "-M"
Procedure, shortened: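 Rates of DiFMU formation were followed 30 min at ex 360/em 450 nm, with 50 μM DiFMUP, 10 pM SHP2 and pIRS1 peptide ([…]) after 30 min compound pre-incubation at pH 7.0 Bis-Tris propane. Four-parameter logistic IC50s in singlicate; repeat runs averaged.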

SHP2, sequence (Q06124 whole entry): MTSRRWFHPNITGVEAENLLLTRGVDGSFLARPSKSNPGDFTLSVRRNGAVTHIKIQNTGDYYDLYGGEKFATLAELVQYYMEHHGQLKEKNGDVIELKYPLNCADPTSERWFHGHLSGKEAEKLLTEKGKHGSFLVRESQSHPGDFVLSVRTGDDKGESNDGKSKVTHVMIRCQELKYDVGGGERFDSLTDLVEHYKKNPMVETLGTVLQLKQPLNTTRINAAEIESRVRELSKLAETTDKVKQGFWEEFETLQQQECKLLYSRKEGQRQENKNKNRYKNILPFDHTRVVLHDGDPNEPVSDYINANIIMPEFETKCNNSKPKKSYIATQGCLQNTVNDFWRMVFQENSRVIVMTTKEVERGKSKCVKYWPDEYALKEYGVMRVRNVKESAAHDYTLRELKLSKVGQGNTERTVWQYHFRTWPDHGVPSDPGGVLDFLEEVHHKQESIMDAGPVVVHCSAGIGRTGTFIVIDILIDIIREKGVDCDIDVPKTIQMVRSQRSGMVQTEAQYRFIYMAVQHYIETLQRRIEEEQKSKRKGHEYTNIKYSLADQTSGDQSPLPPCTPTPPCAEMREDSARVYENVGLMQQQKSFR

Structure (SMILES)	IC50 [1]	IC50 (SHP2)
Cn1nc2ccc(-c3c[nH]c4nc(N5C6CCCC5CNC6)n(C)c(=O)c34)c(Cl)c2c1Cl [Example 99, 2-(3,9-diazabicyclo[3.3.1]nonan-9-yl)-5-(3,4-dichloro-2-methyl-2H-indazol-5-yl)-3-methyl-3,7-dihydro-4H-pyrrolo[2,3-d]pyrimidin-4-one]	57 nM	4.5 nM
Cn1nc2ccc(-c3c[nH]c4nc(N5C6CCCC5CNC6)n(C)c(=O)c34)c(F)c2c1Cl [Example 100, 2-(3,9-diazabicyclo[3.3.1]nonan-9-yl)-5-(3-chloro-4-fluoro-2-methyl-2H-indazol-5-yl)-3-methyl-3,7-dihydro-4H-pyrrolo[2,3-d]pyrimidin-4-one]	95 nM	6 nM
CCn1nc2ccc(-c3c[nH]c4nc(N5[C@H]6CC[C@@H]5[C@H](N)C6)n(C)c(=O)c34)c(Cl)c2c1OC [Example 102, 2-((1R,2R,4S)-2-amino-7-azabicyclo[2.2.1]heptan-7-yl)-5-(4-chloro-2-ethyl-3-methoxy-2H-indazol-5-yl)-3-methyl-3,7-dihydro-4H-pyrrolo[2,3-d]pyrimidin-4-one]	88 nM	9 nM
Cn1c(N2[C@H]3CC[C@@H]2[C@H](N)C3)nc2[nH]cc(-c3ccc4nn(CF)c(Cl)c4c3Cl)c2c1=O [Example 103, 2-((1R,2R,4S)-2-amino-7-azabicyclo[2.2.1]heptan-7-yl)-5-(3,4-dichloro-2-(fluoromethyl)-2H-indazol-5-yl)-3-methyl-3,7-dihydro-4H-pyrrolo[2,3-d]pyrimidin-4-one]	26 nM	2 nM
CN[C@@H]1C[C@@H]2CC[C@H]1N2c1nc2[nH]cc(-c3ccc4nn(C)c(Cl)c4c3Cl)c2c(=O)n1C [Example 104, 5-(3,4-dichloro-2-methyl-2H-indazol-5-yl)-3-methyl-2-((1R,2R,4S)-2-(methylamino)-7-azabicyclo[2.2.1]heptan-7-yl)-3,7-dihydro-4H-pyrrolo[2,3-d]pyrimidin-4-one]	84 nM	2.7 nM
CN[C@@H]1C[C@@H]2CC[C@H]1N2c1nc2[nH]cc(-c3ccc4ncsc4c3Cl)c2c(=O)n1C [Example 105, 5-(7-chlorobenzo[d]thiazol-6-yl)-3-methyl-2-((1R,2R,4S)-2-(methylamino)-7-azabicyclo[2.2.1]heptan-7-yl)-3,7-dihydro-4H-pyrrolo[2,3-d]pyrimidin-4-one]	160 nM	5 nM
CN[C@@H]1C[C@@H]2CC[C@H]1N2c1nc2[nH]cc(-c3ccc4nn(C)c(Cl)c4c3F)c2c(=O)n1C [Example 106, 5-(3-chloro-4-fluoro-2-methyl-2H-indazol-5-yl)-3-methyl-2-((1R,2R,4S)-2-(methylamino)-7-azabicyclo[2.2.1]heptan-7-yl)-3,7-dihydro-4H-pyrrolo[2,3-d]pyrimidin-4-one]	100 nM	5 nM
CN[C@@H]1C[C@@H]2CC[C@H]1N2c1nc2[nH]cc(-c3ccc4nc(C)sc4c3Cl)c2c(=O)n1C [Example 107, 5-(7-chloro-2-methylbenzo[d]thiazol-6-yl)-3-methyl-2-((1R,2R,4S)-2-(methylamino)-7-azabicyclo[2.2.1]heptan-7-yl)-3,7-dihydro-4H-pyrrolo[2,3-d]pyrimidin-4-one]	270 nM	7 nM
Cn1c(N2C3CCCC2CNC3)nc2[nH]cc(-c3ccc4ncsc4c3Cl)c2c1=O [Example 108, 2-(3,9-diazabicyclo[3.3.1]nonan-9-yl)-5-(7-chlorobenzo[d]thiazol-6-yl)-3-methyl-3,7-dihydro-4H-pyrrolo[2,3-d]pyrimidin-4-one]	90 nM	4 nM
CCn1nc2ccc(-c3c[nH]c4nc(N5[C@H]6CC[C@@H]5[C@H](N)C6)n(C)c(=O)c34)c(Cl)c2c1C(F)F [Example 109, 2-((1R,2R,4S)-2-amino-7-azabicyclo[2.2.1]heptan-7-yl)-5-(4-chloro-3-(difluoromethyl)-2-ethyl-2H-indazol-5-yl)-3-methyl-3,7-dihydro-4H-pyrrolo[2,3-d]pyrimidin-4-one]	120 nM	6.5 nM
CCn1nc2ccc(-c3c[nH]c4nc(N5[C@H]6CC[C@@H]5[C@H](N)C6)n(C)c(=O)c34)c(Cl)c2c1CO [Example 110, 2-((1R,2R,4S)-2-amino-7-azabicyclo[2.2.1]heptan-7-yl)-5-(4-chloro-2-ethyl-3-(hydroxymethyl)-2H-indazol-5-yl)-3-methyl-3,7-dihydro-4H-pyrrolo[2,3-d]pyrimidin-4-one]	1700 nM	14 nM
CCn1cc2c(Cl)c(-c3n[nH]c4nc(N5C6CCCC5CNC6)n(C)c(=O)c34)ccc2n1 [Example 111, 6-(3,9-diazabicyclo[3.3.1]nonan-9-yl)-3-(4-chloro-2-ethyl-2H-indazol-5-yl)-5-methyl-1,5-dihydro-4H-pyrazolo[3,4-d]pyrimidin-4-one]	410 nM	26 nM
CCn1cc2c(Cl)c(-c3n[nH]c4nc(N5[C@H]6CC[C@@H]5[C@H](N)C6)n(C)c(=O)c34)ccc2n1 [Example 112, 6-((1R,2R,4S)-2-amino-7-azabicyclo[2.2.1]heptan-7-yl)-3-(4-chloro-2-ethyl-2H-indazol-5-yl)-5-methyl-1,5-dihydro-4H-pyrazolo[3,4-d]pyrimidin-4-one]	260 nM	13 nM
Cc1nc2ccc(-c3n[nH]c4nc(N5[C@H]6CC[C@@H]5[C@H](N)C6)n(C)c(=O)c34)c(Cl)c2s1 [Example 113, 6-((1R,2R,4S)-2-amino-7-azabicyclo[2.2.1]heptan-7-yl)-3-(7-chloro-2-methylbenzo[d]thiazol-6-yl)-5-methyl-1,5-dihydro-4H-pyrazolo[3,4-d]pyrimidin-4-one]	78 nM	4.5 nM
Cn1nc2ccc(-c3n[nH]c4nc(N5[C@H]6CC[C@@H]5[C@H](N)C6)n(C)c(=O)c34)c(Cl)c2c1Cl [Example 114, 6-((1R,2R,4S)-2-amino-7-azabicyclo[2.2.1]heptan-7-yl)-3-(3,4-dichloro-2-methyl-2H-indazol-5-yl)-5-methyl-1,5-dihydro-4H-pyrazolo[3,4-d]pyrimidin-4-one]	73 nM	5.5 nM
CCn1cc2c(Cl)c(-c3n[nH]c4nc(N5[C@@H]6CC[C@H]5C[C@@](C)(N)C6)n(C)c(=O)c34)ccc2n1 [Example 115, 6-(endo-3-amino-3-methyl-8-azabicyclo[3.2.1]octan-8-yl)-3-(4-chloro-2-ethyl-2H-indazol-5-yl)-5-methyl-1,5-dihydro-4H-pyrazolo[3,4-d]pyrimidin-4-one]	490 nM	46 nM
Cn1nc2ccc(-c3n[nH]c4nc(N5C6CCCC5CNC6)n(C)c(=O)c34)c(Cl)c2c1Cl [Example 116, 6-(3,9-diazabicyclo[3.3.1]nonan-9-yl)-3-(3,4-dichloro-2-methyl-2H-indazol-5-yl)-5-methyl-1,5-dihydro-4H-pyrazolo[3,4-d]pyrimidin-4-one]	100 nM	9 nM
Cn1cc2c(Cl)c(-c3n[nH]c4nc(N5C6CCCC5CNC6)n(C)c(=O)c34)ccc2n1 [Example 117, 6-(3,9-diazabicyclo[3.3.1]nonan-9-yl)-3-(4-chloro-2-methyl-2H-indazol-5-yl)-5-methyl-1,5-dihydro-4H-pyrazolo[3,4-d]pyrimidin-4-one]	640 nM	25 nM
CCn1cc2c(Cl)c(-c3n[nH]c4nc(N5[C@H]6CC[C@@H]5[C@H](NC)C6)n(C)c(=O)c34)ccc2n1 [Example 118, 3-(4-chloro-2-ethyl-2H-indazol-5-yl)-5-methyl-6-((1R,2R,4S)-2-(methylamino)-7-azabicyclo[2.2.1]heptan-7-yl)-1,5-dihydro-4H-pyrazolo[3,4-d]pyrimidin-4-one]	1100 nM	49 nM
CN[C@@H]1C[C@@H]2CC[C@H]1N2c1nc2[nH]nc(-c3ccc4nn(C)c(Cl)c4c3Cl)c2c(=O)n1C [Example 119, 3-(3,4-dichloro-2-methyl-2H-indazol-5-yl)-5-methyl-6-((1R,2R,4S)-2-(methylamino)-7-azabicyclo[2.2.1]heptan-7-yl)-1,5-dihydro-4H-pyrazolo[3,4-d]pyrimidin-4-one]	290 nM	17 nM
CN[C@@H]1C[C@@H]2CC[C@H]1N2c1nc2[nH]nc(-c3ccc4nn(C)cc4c3Cl)c2c(=O)n1C [Example 120, 3-(4-chloro-2-methyl-2H-indazol-5-yl)-5-methyl-6-((1R,2R,4S)-2-(methylamino)-7-azabicyclo[2.2.1]heptan-7-yl)-1,5-dihydro-4H-pyrazolo[3,4-d]pyrimidin-4-one]	550 nM	29 nM
CN[C@@H]1C[C@@H]2CC[C@H]1N2c1nc2[nH]nc(-c3ccc4nn(C)c(Cl)c4c3F)c2c(=O)n1C [Example 121, 3-(3-chloro-4-fluoro-2-methyl-2H-indazol-5-yl)-5-methyl-6-((1R,2R,4S)-2-(methylamino)-7-azabicyclo[2.2.1]heptan-7-yl)-1,5-dihydro-4H-pyrazolo[3,4-d]pyrimidin-4-one]	210 nM	16 nM
Cn1c(N2C3CCCC2CNC3)nc2[nH]nc(-c3ccc4ncsc4c3Cl)c2c1=O [Example 122, 6-(3,9-diazabicyclo[3.3.1]nonan-9-yl)-3-(7-chlorobenzo[d]thiazol-6-yl)-5-methyl-1,5-dihydro-4H-pyrazolo[3,4-d]pyrimidin-4-one]	140 nM	8 nM
CN[C@@H]1C[C@@H]2CC[C@H]1N2c1nc2[nH]nc(-c3ccc4ncsc4c3Cl)c2c(=O)n1C [Example 123, 3-(7-chlorobenzo[d]thiazol-6-yl)-5-methyl-6-((1R,2R,4S)-2-(methylamino)-7-azabicyclo[2.2.1]heptan-7-yl)-1,5-dihydro-4H-pyrazolo[3,4-d]pyrimidin-4-one]	170 nM	18 nM
